# Measurements as given in US7763615B2, “Ecteinascidin analogs for use as antitumour agents” (priority 2001, dated 2010).
# Like-named read-outs stand apart in the source and are kept apart here.
# Experiments:
# [1] = test system: H9c2 (2-1), normal rat cardiac muscle cells; settings: 24 h
# Method: (§2) In order to assess the cytotoxicity of the drugs to normal cells, we used 96 well plates plated at a density of 5000 cells per well (except for the FDC-P1 which were plated at 12,000 cells per well) with normal cell lines (ATCC, Table 1) maintained as per the directions of the ATCC: AML-12, normal mouse liver cells; NRK-52E, normal rat kidney cells; L8, normal rat skeletal muscle cells; FDC-P1, normal mouse myelogeous stem cells; and H9c2 (2-1), normal rat cardiac muscle cells. The cells in each plate were permitted to settle overnight before adding the test drug.
# (§3) To each well (100 μl medium) 10 μl of drug in media was added at varying concentrations (1×10-10-0.01 mg/ml final concentration) and further incubated overnight at 37° C. with 5% CO2. After 24 h the following assays were performed. All experiments were repeated at least 3 times and were assayed in duplicate.
# (§4) MTS assay (CellTiter 96 aqueous) was performed according to the manufacturer's (Promega) directions (for all cell types). Cell viability (mitochondrial activity) is determined via enzymatic conversion of the formazan substrate.
# [2] = test system: NRK-52E, normal rat kidney cells; settings: 24 h
# [3] = test system: L8, normal rat skeletal muscle cells; settings: 24 h
# physchem [4] = settings: pH 7.4, aqueous buffer, Solubility Dulbecco's PBS pH 7.4
# (HEPG2) = settings: human, 24 h, 30 μM
# Method: The toxic potential of compounds was investigated in vitro using primary human hepatocytes (HEPG2). The compounds were tested at 30 μM in duplicate with a final DMSO concentration of 1%. After incubation during 24 h at 37° C. the cell viability was determined by the conversion of oxided alarmarBlue (resazurin) to reduced alarmarBlue (resorufin). Chlorpromazine was used as reference compound. Results are expressed as a percent of inhibition of control values.
# [5] = test system: FDC-P1, normal mouse myelogeous stem cells; settings: 24 h
# Method: as §2, §3, §4
# SW-620 = test: cells; type: cell-based; settings: Homo sapiens; for CC50: SW-620, 48 h, read-out: LC50; for IC (TGI) / GI50: SW-620, 48 hours exposure, SRB; for GI50: read-out: GI50
# How it was run: (§1)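 Cells plated at 5×10^3 per well; 18 h later, test samples added across 10 to 10^−8 μg/ml; incubation continued 48 h at 37° C, 5% CO2. Cells then fixed with cold TCA, stained with SRB, dye solubilised in Tris, and optical density measured at 490 nm.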
# MB231 = test: cells; type: cell-based; settings: Homo sapiens; for CC50: read-out: LC50; for IC (TGI): read-out: TGI
# How it was run: as §1
# HT29 = test: cells; type: cell-based; settings: for GI50 / IC (TGI) / CC50: Homo sapiens
# How it was run: as §1
# DU145 = test: cells; type: cell-based; settings: for GI50 / IC (TGI) / CC50: Homo sapiens
# How it was run: as §1
# A498 = test: cells; type: cell-based; settings: Homo sapiens; for CC50: A498, 48 h, read-out: LC50; for GI50 / IC (TGI): A498, 48 hours exposure, SRB
# How it was run: as §1
# A549 = test: cells; type: cell-based; settings: for GI50 / IC (TGI) / CC50: Homo sapiens; for GI50: read-out: GI50; for IC (TGI): read-out: TGI
# How it was run: as §1
# MCF = test: cells; type: cell-based; settings: Homo sapiens; for CC50: 48 h, read-out: LC50; for GI50 / IC (TGI): MCF, 48 hours exposure, SRB; for IC (TGI): read-out: TGI
# How it was run: as §1
# MEL-28 = test: cells; type: cell-based; settings: for GI50 / IC (TGI) / CC50: Homo sapiens
# How it was run: as §1
# CYP3A4 = CYP3A4 (Homo sapiens, UniProt P08684); test: in vitro; settings: CYP3A4 (% inhibition)
# [6] = s9, 60 min, 1 μM
# Method: The metabolic stability was determined used human liver S9 homogenate that including both microsomal and cytosolic enzyme activities. The test compound was diluted in methanol (0.625%) and acetonitrile (0.625%) at the concentration 1 μM and incubated in the human liver pool (protein=1 mg/mL) during 60 min at 37° C. Peak areas corresponding to all analytes (metabolic products) were determined by HPLC-MS/MS. Areas were recorded and ratios of peak areas of analytes to that of internal standard for each analyte were determined. The ratio of precursor compound remaining after 60 minutes and the amount remaining at time zero, expressed as percent, are reported as metabolic stability. Higher values mean higher metabolic stability.
# CYP2D6 = CYP2D6 (Homo sapiens, UniProt P10635); test: in vitro; settings: CYP2D6 (% inhibition)
# Method: For CYP2D6 inhibition assay, the compound are tested at 10 μM in duplicate with a 0.25% final concentration of both methanol and acetonitrile in presence of the fluorescent substrate AMMC (3-[2-N,N-diethyl-N-methylammonium)ethyl]-7-methoxy-4-methylcoumarin) at the concentration of 1.5 μM). The conversion of the AMMC in AHMC (3-[2-N,N-diethyl-N-methylammonium)ethyl]-7-hydroxy-4-methylcoumarin) is determined spectrofluorimetry after incubation with the enzyme during 450 min at 37° C.
# For both assays, the fluorescent intensity measured at t=0 is subtracted from that measured after the appropriate incubation time. The ratio of signal-to-noise is calculated by comparing the fluorescence in incubations containing the test compound to the control samples containing the same solvent vehicle. The percent of control activity is calculated and reported as percent inhibition.
# [7] = test system: AML-12, normal mouse liver cells; settings: 24 h
# physchem [8] = settings: pH 7.4, log D n-Octanol-Dulbecco's PBS pH 7.4
# H-MEC-1 = test: Inhibition of cells growth by colorimetric assay (SRB), H-MEC-1; type: cell-based
# How it was run: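 SRB colorimetric growth assay: 5×10^3 cells/well, 18 h attachment, 48 h continuous compound exposure at 10–10^−8 μg/ml in DMSO/EtOH/PBS. TCA fixation, SRB stain, OD 490 nm; triplicate wells, GI, TGI and LC derived.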
# LOVO = test: cells; type: cell-based
# How it was run: as §1
# PANC-1 = test: cells; type: cell-based
# How it was run: as §1
# K562 = test: cells; type: cell-based
# How it was run: as §1
# LOVO-DOX = test: cells; type: cell-based
# How it was run: as §1
# IGROV = test: cells; type: cell-based
# How it was run: as §1
# LNCAP = test: cells; type: cell-based
# How it was run: as §1
# SK-BR3 = test: cells; type: cell-based
# How it was run: as §1
# IGROV-ET = test: cells; type: cell-based
# How it was run: as §1
# SK-OV3 = test: Inhibition of cells growth by colorimetric assay (SRB), SK-OV3; type: cell-based
# How it was run: as §1
# [9] = HT-29, 48 h, HT29, 48 hours exposure, SRB
# [10] = HT-29, 48 h, read-out: LC50, HT29, 48 hours exposure, SRB
# [11] = DU-145, 48 h, DU145, 48 hours exposure, SRB
# [12] = DU-145, 48 h, read-out: LC50, DU145, 48 hours exposure, SRB
# [13] = A549, 48 h, A549, 48 hours exposure, SRB
# [14] = A549, 48 h, read-out: LC50, A549, 48 hours exposure, SRB
# [15] = SK-MEL-28, 48 h, MEL-28, 48 hours exposure, SRB
# [16] = SK-MEL-28, 48 h, read-out: LC50, MEL-28, 48 hours exposure, SRB
# Sequence of CYP2D6 (P10635 whole entry): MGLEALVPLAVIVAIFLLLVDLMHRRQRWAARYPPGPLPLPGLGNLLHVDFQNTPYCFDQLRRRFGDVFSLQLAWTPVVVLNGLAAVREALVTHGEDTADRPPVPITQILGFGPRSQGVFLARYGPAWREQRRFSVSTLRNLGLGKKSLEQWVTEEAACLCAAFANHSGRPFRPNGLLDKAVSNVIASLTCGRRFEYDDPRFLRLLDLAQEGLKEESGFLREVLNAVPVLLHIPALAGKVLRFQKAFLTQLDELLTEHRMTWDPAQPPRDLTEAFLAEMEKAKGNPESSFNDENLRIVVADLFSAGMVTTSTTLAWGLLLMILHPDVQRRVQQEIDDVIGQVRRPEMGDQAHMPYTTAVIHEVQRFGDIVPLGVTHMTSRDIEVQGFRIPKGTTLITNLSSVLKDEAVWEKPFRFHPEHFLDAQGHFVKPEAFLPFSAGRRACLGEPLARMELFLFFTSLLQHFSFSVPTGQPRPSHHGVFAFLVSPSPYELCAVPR
# Sequence of CYP3A4 (P08684 whole entry): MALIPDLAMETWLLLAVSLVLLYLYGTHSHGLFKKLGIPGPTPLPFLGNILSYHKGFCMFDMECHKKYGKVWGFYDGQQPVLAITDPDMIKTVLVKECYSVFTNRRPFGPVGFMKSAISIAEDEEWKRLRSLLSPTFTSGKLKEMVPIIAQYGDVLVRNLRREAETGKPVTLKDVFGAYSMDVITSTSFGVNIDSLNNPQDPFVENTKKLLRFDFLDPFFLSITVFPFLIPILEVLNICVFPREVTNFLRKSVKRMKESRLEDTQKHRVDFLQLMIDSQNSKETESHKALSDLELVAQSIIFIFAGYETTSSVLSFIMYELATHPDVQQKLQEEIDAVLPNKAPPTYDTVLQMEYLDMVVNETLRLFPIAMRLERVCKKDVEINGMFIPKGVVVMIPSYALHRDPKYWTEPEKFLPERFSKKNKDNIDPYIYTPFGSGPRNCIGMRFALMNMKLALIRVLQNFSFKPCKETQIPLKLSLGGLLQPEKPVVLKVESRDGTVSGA
compound,measurement,setting,value
COc1c(C)cc2c(c1O)[C@@H]1C3[C@@H]4SC[C@]5(NCCc6c5[nH]c5c(OCc7ccccc7)cccc65)C(=O)COC[C@@H](c5c6c(c(C)c(OC(C)=O)c54)OCO6)N3[C@@H](O)[C@H](C2)N1C (stereo partly drawn) [Compound 28],Heart,[1],1.84E−07
same,Kidney,[2],8.37E−08
same,Skeletal,[3],1.45E−07
same,solubility,physchem [4],< 1 µM
same,Cell Viability (% inhibition),(HEPG2),17 % inhibition
same,Myelo,[5],2.00E−07
same,CC50,SW-620,92.9 nM
same,IC (TGI),SW-620,23.2 nM
same,GI50,SW-620,6.97 nM
same,CC50,MB231; 48 h,116 nM
same,IC (TGI),MB231; 48 h,9.29 nM
same,GI50,"MB231; MB231, 48 hours exposure, SRB",3.48 nM
same,GI50,HT29; [9],11.6 nM
same,IC (TGI),HT29; [9],69.7 nM
same,CC50,HT29; [10],105 nM
same,GI50,DU145; [11],2.32 nM
same,IC (TGI),DU145; [11],3.48 nM
same,CC50,DU145; [12],9.29 nM
same,CC50,A498,58.1 nM
same,GI50,A498,3.48 nM
same,IC (TGI),A498,11.6 nM
same,GI50,A549; [13],3.48 nM
same,IC (TGI),A549; [13],46.5 nM
same,CC50,A549; [14],34.8 nM
same,CC50,MCF,116 nM
same,GI50,MCF,5.81 nM
same,IC (TGI),MCF,23.2 nM
same,GI50,MEL-28; [15],23.2 nM
same,IC (TGI),MEL-28; [15],34.8 nM
same,CC50,MEL-28; [16],81.3 nM
same,"inhibition at 30 min, 10 µM",CYP3A4,79%
same,Human Liver S9 Metabolic Stability (% remaining),[6],33 % remaining
same,"inhibition at 450 min, 10 µM",CYP2D6,34%
same,Liver,[7],1.42E−07
same,logD at 60 min,physchem [8],> 4.6
COc1c(C)cc2c(c1O)[C@@H]1C3[C@@H]4SC[C@]5(NCCc6c5[nH]c5ccc(OCc7ccccc7)cc65)C(=O)COC[C@@H](c5c6c(c(C)c(OC(C)=O)c54)OCO6)N3[C@@H](O)[C@H](C2)N1C (stereo partly drawn) [Compound 29],Heart,[1],7.22E−08
same,Kidney,[2],1.94E−08
same,Skeletal,[3],3.29E−07
same,solubility,physchem [4],1.59 µM
same,Cell Viability (% inhibition),(HEPG2),29 % inhibition
same,Myelo,[5],1.79E−08
same,CC50,SW-620,105 nM
same,IC (TGI),SW-620,69.7 nM
same,GI50,SW-620,23.2 nM
same,CC50,MB231; 48 h,116 nM
same,GI50,"MB231; MB231, 48 hours exposure, SRB",23.2 nM
same,IC (TGI),"MB231; MB231, 48 hours exposure, SRB",46.5 nM
same,GI50,HT29; [9],23.2 nM
same,IC (TGI),HT29; [9],69.7 nM
same,CC50,HT29; [10],105 nM
same,GI50,DU145; [11],23.2 nM
same,IC (TGI),DU145; [11],34.8 nM
same,CC50,DU145; [12],92.9 nM
same,CC50,A498,116 nM
same,GI50,A498,3.48 nM
same,IC (TGI),A498,11.6 nM
same,GI50,A549; [13],23.2 nM
same,IC (TGI),A549; [13],34.8 nM
same,CC50,A549; [14],92.9 nM
same,CC50,MCF,116 nM
same,GI50,MCF,23.2 nM
same,IC (TGI),MCF,34.8 nM
same,GI50,MEL-28; [15],23.2 nM
same,IC (TGI),MEL-28; [15],34.8 nM
same,CC50,MEL-28; [16],81.3 nM
same,"inhibition at 30 min, 10 µM",CYP3A4,55%
same,Human Liver S9 Metabolic Stability (% remaining),[6],9 % remaining
same,"inhibition at 450 min, 10 µM",CYP2D6,27%
same,Liver,[7],1.59E−08
same,logD at 60 min,physchem [8],> 4.9
C=COC(=O)Oc1c(OC)c(C)cc2c1[C@@H]1C3[C@@H]4SC[C@]5(NCCc6c5[nH]c5ccccc65)C(=O)COC[C@@H](c5c6c(c(C)c(OC(C)=O)c54)OCO6)N3[C@@H](O)[C@H](C2)N1C (stereo partly drawn) [Compound 47],Heart,[1],7.36E−08
same,Kidney,[2],3.15E−08
same,Skeletal,[3],2.57E−08
same,solubility,physchem [4],< 1 µM
same,TGI,H-MEC-1; H-MEC-1,1.50E−07
same,GI50,"H-MEC-1; Homo sapiens, HMEC-1, H-MEC-1",6.78 nM
same,CC50,"H-MEC-1; Homo sapiens, HMEC-1, read-out: LC50, H-MEC-1",≥ 12100 nM
same,Cell Viability (% inhibition),(HEPG2),18 % inhibition
same,Myelo,[5],6.76E−08
same,GI50,"LOVO; Homo sapiens, LoVo",6.26 nM
same,CC50,"LOVO; Homo sapiens, LoVo, read-out: LC50, LOVO",≥ 12100 nM
same,TGI,LOVO; LOVO,4.64E−08
same,GI50,"PANC-1; Homo sapiens, PANC-1, PANC-1",42.4 nM
same,CC50,"PANC-1; Homo sapiens, PANC-1, read-out: LC50, PANC-1",≥ 12100 nM
same,TGI,PANC-1; PANC-1,1.70E−06
same,GI50,"K562; Homo sapiens, K562, K562",13.1 nM
same,CC50,"K562; Homo sapiens, K562, read-out: LC50, K562",6320 nM
same,TGI,K562; K562,2.11E−06
same,GI50,"LOVO-DOX; Homo sapiens, LOVO-DOX",40.7 nM
same,CC50,"LOVO-DOX; Homo sapiens, read-out: LC50, LOVO-DOX",≥ 12100 nM
same,TGI,LOVO-DOX; LOVO-DOX,1.17E−07
same,TGI,HT29; HT29,1.21E−05
same,GI50,"HT29; HT-29, HT29",38.8 nM
same,CC50,"HT29; HT-29, read-out: LC50, HT29",≥ 12100 nM
same,TGI,DU145; DU145,2.06E−08
same,GI50,"DU145; DU-145, DU145",5.46 nM
same,CC50,"DU145; DU-145, read-out: LC50, DU145",≥ 12100 nM
same,TGI,IGROV,4.07E−08
same,GI50,IGROV; Homo sapiens,10.6 nM
same,CC50,"IGROV; Homo sapiens, read-out: LC50, IGROV",909 nM
same,TGI,A549; A549,7.50E−08
same,GI50,"A549; A549, A549",33.3 nM
same,CC50,"A549; A549, read-out: LC50, A549",1330 nM
same,GI50,"LNCAP; Homo sapiens, LNCaP",2.65 nM
same,CC50,"LNCAP; Homo sapiens, LNCaP, read-out: LC50, LNCAP",9.76 nM
same,TGI,LNCAP; LNCAP,5.08E−09
same,GI50,"SK-BR3; Homo sapiens, SK-BR-3, SK-BR3",7.56 nM
same,CC50,"SK-BR3; Homo sapiens, SK-BR-3, read-out: LC50, SK-BR3",693 nM
same,TGI,SK-BR3; SK-BR3,3.47E−08
same,GI50,"IGROV-ET; Homo sapiens, IGROV-ET",69.7 nM
same,CC50,"IGROV-ET; Homo sapiens, read-out: LC50, IGROV-ET",≥ 12100 nM
same,TGI,IGROV-ET; IGROV-ET,3.61E−06
same,GI50,"MEL-28; SK-MEL-28, MEL-28",4.26 nM
same,CC50,"MEL-28; SK-MEL-28, read-out: LC50, MEL-28",207 nM
same,TGI,MEL-28; MEL-28,1.00E−08
same,"inhibition at 30 min, 10 µM",CYP3A4,38%
same,Human Liver S9 Metabolic Stability (% remaining),[6],5 % remaining
same,"inhibition at 450 min, 10 µM",CYP2D6,10%
same,Liver,[7],3.04E−08
same,GI50,"SK-OV3; Homo sapiens, SK-OV-3, SK-OV3",8.98 nM
same,CC50,"SK-OV3; Homo sapiens, SK-OV-3, read-out: LC50, SK-OV3",≥ 12100 nM
same,TGI,SK-OV3; SK-OV3,2.88E−07
same,logD at 60 min,physchem [8],> 5
